# Experiments:
# [1] = target: T1, PKCα (Homo sapiens, UniProt P17252); assay type: cell-based; conditions: HeLa
# T1 construct: host or cells: HeLa cells
# Method: (§1) Five EGFP-PKC isoforms (Clontech) were available for this experiment, enabling the screening of the three predominant PKC families (i.e. classical, novel and atypical PKCs). The members of the various PKC families are α, β, and γ (classical), θ (novel) and ζ (atypical).
# (§2) HeLa cells were plated out in a 24-well plate containing coverslips and transfected with PKC isoforms fused to EGFP, using a commercially available effectine-transfection kit (QIAGEN, Pty. Ltd.). Cells were exposed to the transfection reagents for 16-24 hr. Subsequently, transfected cells were treated for one hour with TPA (100 ng/mL), bryostatin-1 (5 pg/mL), PEP003 (2.25 μg/mL; 5 μM) or PEP005 ([…]) 1.5 μM). Following treatment, cells were fixed on coverslips and mounted on glass slides. The slides were subsequently examined visually by fluorescence microscopy, photographed, and over 150 cells were counted/treatment/PKC isoform. Counted cells were classified according to the localisation of the PKC-EGFP fluorescence as either cytoplasmic or plasma membrane using ImagePro™ 4.1 (FIG. 5). […] The number of these cells was also counted.
# [2] = target: T2, PKCγ (Homo sapiens, UniProt P05129); assay: EGFP-PKC isoform translocation in HeLa cells; assay type: cell-based
# T2 construct: host or cells: HeLa cells
# Method: as §1
# as §2, with “counted. Results are presented as an average and standard deviation of percentages of cells (Table 1).” for “counted.”
# [3] = target: T3, PKCζ (Homo sapiens, UniProt Q05513); assay: EGFP-PKC isoform translocation in HeLa cells; assay type: cell-based; conditions: one hour, TPA 100 ng/mL, bryostatin-1 5 pg/mL, PEP003 2.25 μg/mL (5 μM), PEP005 670 μg/mL (1.5 μM)
# T3 construct: host or cells: HeLa cells
# T3 sequence (Q05513 1-592): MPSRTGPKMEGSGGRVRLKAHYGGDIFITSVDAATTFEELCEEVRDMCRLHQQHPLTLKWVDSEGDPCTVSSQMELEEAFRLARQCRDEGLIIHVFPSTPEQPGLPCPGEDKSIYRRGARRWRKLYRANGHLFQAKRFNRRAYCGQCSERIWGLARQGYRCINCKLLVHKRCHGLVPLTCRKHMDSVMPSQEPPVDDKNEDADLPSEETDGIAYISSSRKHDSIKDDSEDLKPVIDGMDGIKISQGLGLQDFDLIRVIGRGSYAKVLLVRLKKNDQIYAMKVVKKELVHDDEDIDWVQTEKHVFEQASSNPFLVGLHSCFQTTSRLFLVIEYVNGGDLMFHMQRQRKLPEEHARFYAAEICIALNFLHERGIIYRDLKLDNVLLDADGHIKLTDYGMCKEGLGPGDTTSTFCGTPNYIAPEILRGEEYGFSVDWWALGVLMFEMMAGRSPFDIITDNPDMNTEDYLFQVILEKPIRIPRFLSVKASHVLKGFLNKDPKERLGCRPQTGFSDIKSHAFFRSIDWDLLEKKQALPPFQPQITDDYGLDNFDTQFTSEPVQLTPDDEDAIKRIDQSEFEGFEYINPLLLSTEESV
# Method: as §1
# as §2, with “counted. Results are presented as an average and standard deviation of percentages of cells (Table 1).” for “counted.”
# [4] = target: T4, PKCβ (Homo sapiens, UniProt P05771); assay: EGFP-PKC isoform translocation in HeLa cells; assay type: cell-based; conditions: for number of PKCβ transfected cells with Golgi-like fluorescence: one hour treatment; for translocation of PKCβ to the plasma membrane: one hour, TPA 100 ng/mL, bryostatin-1 5 pg/mL, PEP003 2.25 μg/mL (5 μM), PEP005 670 μg/mL (1.5 μM)
# T4 construct: host or cells: HeLa cells
# T4 sequence (P05771 whole entry, species assumed, canonical isoform): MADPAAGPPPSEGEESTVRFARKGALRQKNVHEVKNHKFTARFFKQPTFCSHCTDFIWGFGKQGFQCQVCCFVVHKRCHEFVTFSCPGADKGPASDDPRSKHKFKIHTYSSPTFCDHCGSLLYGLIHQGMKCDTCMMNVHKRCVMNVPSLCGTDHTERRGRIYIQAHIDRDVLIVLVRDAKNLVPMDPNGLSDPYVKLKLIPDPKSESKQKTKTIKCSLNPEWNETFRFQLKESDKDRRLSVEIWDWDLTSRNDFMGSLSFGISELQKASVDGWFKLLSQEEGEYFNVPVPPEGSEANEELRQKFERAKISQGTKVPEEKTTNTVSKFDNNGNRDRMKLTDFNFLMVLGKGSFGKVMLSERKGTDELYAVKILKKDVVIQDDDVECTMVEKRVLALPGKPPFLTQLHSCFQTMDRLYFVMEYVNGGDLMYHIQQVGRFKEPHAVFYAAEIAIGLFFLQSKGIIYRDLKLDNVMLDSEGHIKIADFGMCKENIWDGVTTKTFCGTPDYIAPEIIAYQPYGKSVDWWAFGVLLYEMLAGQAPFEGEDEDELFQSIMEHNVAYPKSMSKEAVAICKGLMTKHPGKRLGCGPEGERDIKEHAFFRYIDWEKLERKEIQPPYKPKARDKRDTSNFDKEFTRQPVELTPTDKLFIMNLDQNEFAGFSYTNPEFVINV
# Method: as §1
# as §2, with “counted. Results are presented as an average and standard deviation of percentages of cells (Table 1).” for “counted.”
# [5] = target: T5, PKCθ (Homo sapiens, UniProt Q04759); assay: EGFP-PKC isoform translocation in HeLa cells; assay type: cell-based; conditions: one hour, TPA 100 ng/mL, bryostatin-1 5 pg/mL, PEP003 2.25 μg/mL (5 μM), PEP005 670 μg/mL (1.5 μM)
# T5 construct: host or cells: HeLa cells
# T5 sequence (Q04759 whole entry, canonical isoform): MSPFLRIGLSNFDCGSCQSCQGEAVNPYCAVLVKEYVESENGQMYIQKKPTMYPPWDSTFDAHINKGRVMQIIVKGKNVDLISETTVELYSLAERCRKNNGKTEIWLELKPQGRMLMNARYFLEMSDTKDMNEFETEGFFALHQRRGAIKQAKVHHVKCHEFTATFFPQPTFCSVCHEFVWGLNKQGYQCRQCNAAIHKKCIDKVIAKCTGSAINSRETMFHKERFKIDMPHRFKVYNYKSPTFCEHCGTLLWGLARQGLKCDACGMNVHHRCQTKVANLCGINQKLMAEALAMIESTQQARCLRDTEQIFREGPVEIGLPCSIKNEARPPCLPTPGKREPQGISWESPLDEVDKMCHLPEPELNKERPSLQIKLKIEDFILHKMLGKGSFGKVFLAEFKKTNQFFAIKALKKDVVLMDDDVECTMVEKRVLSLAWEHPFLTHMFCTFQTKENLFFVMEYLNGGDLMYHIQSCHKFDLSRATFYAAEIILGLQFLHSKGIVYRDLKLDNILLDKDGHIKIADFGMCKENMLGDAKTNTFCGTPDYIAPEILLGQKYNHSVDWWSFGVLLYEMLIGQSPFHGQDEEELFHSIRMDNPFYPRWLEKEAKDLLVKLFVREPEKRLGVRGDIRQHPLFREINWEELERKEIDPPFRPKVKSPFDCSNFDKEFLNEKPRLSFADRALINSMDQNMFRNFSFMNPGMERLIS
# Method: as §1
# as §2, with “counted. Results are presented as an average and standard deviation of percentages of cells (Table 1).” for “counted.”
# [6] = system: adenovirus 5; assay: Adenovirus 5 replication in human melanoma cells; assay type: cell-based; conditions: 2 days
# Excerpt: Human melanoma cells were infected with ten-fold dilutions of adenovirus 5 in culture, treated with dilutions of PEP005, PEP006, PEP008 and PEP010 and adenovirus replication determined 2 days later by immunhistochemical detection of virus-replicating cells.
# [7] = system: peripheral blood mononuclear cells (PBMCs); assay: Phagocytosis with fluorescent beads; assay type: cell-based; conditions: whole heparinized blood, 30 min at 37° C.
# Method: Phagocytosis by peripheral blood mononuclear cells (PBMCs) was assayed (Steinkamp et al., 1982) using 1 μm Fluoresbrite™ yellow-green fluorescent latex spheres (Polysciences, Inc., Warrington, Pa.). A sample of whole, heparinized blood was treated with drug and 5×10E7 fluorescent latex beads in 10 μL of PBS added per mL of suspension. Cells were incubated and maintained in suspension for 30 min by means of a shaker platform at 37° C. The stirnulated and non-stimulated samples were then lysed to isolate PBMCs. The PBMCs were run on the flow cytometer measuring FITC (excitation at 488 nm, emission at 525±20 nm), gated for fluorescence (phagocytosed spheres) and light scatter (cell size).
# [8] = system: rat brain PKC; assay: PepTag non-radioactive PKC kinase activity assay; conditions: FIG. 1; TPA 100-0.01 ng/ml; ether extract final dilution 1 in 5; aqueous layer and crude sap diluted 1/25
# Method: The kinase activity of rat brain PKC (Promega) was determined using the Peptag™ Non-Radioactive Protein Kinase Kit (Promega). Using agarose gel electrophoresis the technique visualises the opposing electrostatic charge of a fluorescently labeled peptide ([sequence]) compared to the phosphorylated version of the same peptide.
# The reaction mixture was separated by gel electrophoresis, showing migration of the unreacted substrate (a) to the anode (top), and the product (b), which is more negatively charged because of phosphorylation by PKC, moving towards the cathode (bottom).
# [9] = system: MM96L human melanoma cells; assay: Leukocyte killing of tumor cells, [3H]-thymidine labelling; assay type: cell-based; conditions: 100:1 effector:target, 48 hr
# Method: (§3) Leukocytes obtained by lysis of human peripheral blood were added to 5000 MM96L human melanoma cells or 7000 neonatal foreskin fibroblasts per microtitre well at effector: target ratios of 1000, 100 and 10:1. Ing9 (60 ng/mL) was added and after 48 hr incubation the cultures were washed and labelled with [3H]-thymidine for 2 hr. […] Untreated leukocytes had no effect on cell survival.
# as §3, with “The target cells had been treated with 60 ng/mL PEP008 for 20 hr beforehand,” for “Ing9 (60 ng/mL) was added”, “washed and the medium replaced before the leukocytes were added. After” for “after”, “incubation with the leukocytes” for “incubation”
# [10] = system: neonatal foreskin fibroblasts; assay: Leukocyte killing of normal cells, [3H]-thymidine labelling; assay type: cell-based, human; conditions: 100:1 effector:target, 48 hr
# Method: as §3
# as §3, with “The target cells had been treated with 60 ng/mL PEP008 for 20 hr beforehand,” for “Ing9 (60 ng/mL) was added”, “washed and the medium replaced before the leukocytes were added. After” for “after”, “incubation with the leukocytes” for “incubation”
# [11] = system: HIV-strain pNL4-3; assay: HIV-1 replication in acutely infected PBMC (CA-p24 ELISA); assay type: cell-based; conditions: 2.8 μM
# Method: Experiments were conducted to assess the effect of the compounds of the instant invention on HIV-1 replication in acutely infected T cells. Peripheral blood mononuclear cells (PBMC) were obtained from non-HIV-1, non-HIV-2, non-Hepatitis B/C infected donors, stimulated with phytohemagglutinin-M and grown in culture media supplemented with 10 U/mL interleukin-2. The activated PBMC were infected with […] (Low Titre) and 100 ng (High Titre) of CA-p24 equivalents of the HIV-strain pNL4-3. Cells were infected for two hr after which, the virus was removed and the cells were washed with culture media. Equivalent numbers of cells were seeded into 24 well plates and compounds were added to the cultured cells that included: TPA at 8 riM and 80 nM, Ingenol at 280 nM, PEP003 at 500 nM, 50 nM and 5 nM, or PEP004 at dilutions of 1×10^4 and 1×10^5 from the stock (final concentrations). In addition, uninfected activated PBMC were grown in the presence of TPA (80 nM), Ingenol (280 nM), PEP003 (500 nM) and PEP004 (1×10^4 dilution). Other cultures were neither infected nor treated with any compound, or infected but not treated with any compound. Supernatant was removed from each culture at day 0, 3, 7, and 10. The amount of HIV-1 CA-p24 was determined using a commercially available ELISA assay. Three independent experiments were performed.
# [12] = system: Peripheral blood mononuclear cells (PBMC); assay: Respiratory burst (H2O2) in PBMC, DCFH-DA flow cytometry; assay type: cell-based
# Method: Experiments were also carried out using 2′,7′-dichlorofluorescein diacetate (DCFH-DA) to measure the production of H2O2.(J P Robinson, Oxidative burst methods, in Handbook of Flow Cytometry Methods, Wiley-Liss Inc, pp147-149, 1993). H2O2 oxidizes the non-fluorescent probe (DCFH-DA) to a fluorescent probe that can then be detected by a flow cytometer. Peripheral blood mononuclear cells (PBMC) were extracted from a donor blood sample by lysis of heparinized blood and used in a suspension of 1×10^6/mL of phosphate buffer, pH 7.3. The cells were then incubated with DCFH-DA (1 μL/mL of 20 mM stock) for 15 minutes to allow it to be taken up and trapped by hydrolysis with cellular esterases. The cells were then stimulated by test compounds for 15 min at 37° C. Controls included in the experiment were unloaded control (cells with no DCFH-DA) and loaded control (cells with DCFH-DA, but no stimulation). These were used to monitor the non-specific oxidation of unstimulated cells. The cells were then analyzed on the flow cytometer (excitation at 488 nm, emission at 525±20 nm), gating each sample for individual cell populations-granulocytes, monocytes and lymphocytes (Table 3).
# [13] = system: phorbol ester binding site of PKC; assay: [3H]-phorbol dibutyrate competition assay on rat brain homogenate
# Method: A competition assay was performed to determine whether the diterpene esters of the instant invention bind to the phorbol ester binding site of PKC. […] This binding was not blocked by co-incubation with bisindolylmaleimide.
# [14] = system: MM96L cells; assay: Effect of Euphorbiaceae saps on MM96L cells (cytotoxicity, bipolar dendritic phenotype); assay type: cell-based; conditions: 1 μg/mL or 10 μg/mL
# Method: Sap was collected from Synadenium grantii, Synadenium compactum, Mondenium lugardae, Mondenium guentheri, Endadenium gossweileni, and E. peplus and serially diluted ten-fold up to 10^−7into sterile 1.5 mL Eppendorf™ tubes using growth medium. […] After 3 days, cells were examined for cytotoxicity or differentiation to a bipolar dendritic phenotype.
# [15] = target cells pre-treated with 60 ng/mL for 20 hr, washed
compound,measurement,setting,value
"C/C=C(/C)C(=O)O[C@H]1C(C)=C[C@]23C(=O)[C@@H](C=C(CO)[C@@H](O)[C@]12O)[C@H]1[C@@H](C[C@H]3C)C1(C)C [PEP005, 20-hydroxy-ingenol-3-angelate]",number of PKCα transfected cells displaying Golgi-like fluorescence,[1]; one hour treatment,increase in the number of cells displaying Golgi-like fluorescence
same,translocation of PKCα to the plasma membrane,"[1]; one hour, TPA 100 ng/mL, bryostatin-1 5 pg/mL, PEP003 2.25 μg/mL (5 μM)",translocated from the cytoplasm to the plasma membrane
same,number of PKCγ transfected cells displaying Golgi-like fluorescence,[2]; one hour treatment,increase in the number of cells displaying Golgi-like fluorescence
same,translocation of PKCγ to the plasma membrane,"[2]; one hour, TPA 100 ng/mL, bryostatin-1 5 pg/mL, PEP003 2.25 μg/mL (5 μM), PEP005 670 μg/mL (1.5 μM)",translocated from the cytoplasm to the plasma membrane
same,translocation of PKCζ,[3],fail to induce translocation
same,number of PKCβ transfected cells with Golgi-like fluorescence,[4],decreases the number of cells with PKCβ concentrated in the Golgi
same,translocation of PKCβ to the plasma membrane,[4],translocated from the cytoplasm to the plasma membrane
same,translocation of PKCθ,[5],does not induce any change
same,increase of adenovirus replication (number of stained cells),[6]; 67 ng/mL,344%
same,stimulation of phagocytosis of fluorescent latex beads,[7],stimulate phagocytosis in PBMCs
phosphatidyl serine,activation of PKC (phosphorylation of fluorescent PepTag substrate),[8],strong activation
"C/C=C(/C)C(=O)O[C@H]1C(C)=C[C@]23C(=O)[C@@H](C=C(COC(C)=O)[C@@H](O)[C@]12O)[C@H]1[C@@H](C[C@H]3C)C1(C)C [PEP008, 20-O-acetyl-ingenol-3-angelate]",increase of adenovirus replication (number of stained cells),[6]; 226 ng/mL,248%
same,survival of melanoma cells,[9]; 60 ng/mL added with leukocytes,9%
same,survival of melanoma cells,[9]; [15],12%
same,survival of normal fibroblasts,[10]; 60 ng/mL added with leukocytes,100%
same,survival of normal fibroblasts,[10]; [15],100%
same,stimulation of phagocytosis of fluorescent latex beads,[7],stimulate phagocytosis in PBMCs
CC1=C[C@]23C(=O)[C@@H](C=C(CO)[C@@H](O)[C@]2(O)[C@H]1O)[C@H]1[C@@H](C[C@H]3C)C1(C)C [Ingenol],reduction of HIV-1 replication rate,[11],approximately 35%
CCC/C=C/C=C/C(=O)O[C@H]1/C(=C/C(=O)OC)C[C@H]2C[C@H]([C@@H](C)O)OC(=O)C[C@H](O)C[C@@H]3C[C@H](OC(C)=O)C(C)(C)[C@](O)(C[C@@H]4C/C(=C/C(=O)OC)C[C@H](/C=C/C(C)(C)[C@]1(O)O2)O4)O3 [bryostatin-1],translocation of PKCζ,[3],fail to induce translocation
same,number of PKCβ transfected cells with Golgi-like fluorescence,[4],decreases the number of cells with PKCβ concentrated in the Golgi
same,translocation of PKCβ to the plasma membrane,[4],but not with bryostatin-1
same,translocation of PKCθ,[5],translocated
same,"induction of a respiratory burst (H2O2, DCFH-DA)","[12]; 15 min at 37° C., granulocytes, monocytes, lymphocytes",All compounds except Bryostatin induced a respiratory burst
"C/C=C(/C)C(=O)O[C@H]1C(C)=C[C@]23C(=O)[C@@H](C=C(CO)[C@@H](O)[C@]12O)[C@H]1[C@@H](C[C@H]3C)C1(C)C [PEP006, Ingenol-3-angelate]",increase of adenovirus replication (number of stained cells),[6]; 295 ng/mL,256%
same,stimulation of phagocytosis of fluorescent latex beads,[7],stimulate phagocytosis in PBMCs
bisindolylmaleimide,block of the respiratory burst by PKC inhibitor,"[12]; 10 μg/mL or 1 μg/mL, added at the same time as test compounds",blocked the respiratory burst
same,binding to the phorbol ester binding site of PKC,[13],does not
same,effect of PKC inhibitor on sap-induced differentiation of MM96L cells,[14],this differentiation is inhibited

# From US20030195168A1, “Therapeutic agents - III” (priority 2000, published 2003)
